Test results from patent publication US10464902B1, “Multi-tyrosine kinase inhibitors derivatives and methods of use” (Ontogenesis, LLC, priority 2015, dated 2019).
Read-outs that look alike come from different tables or passages of the source.

Legend:
VEGFR [1] = assay: Virtual discovery: suppression of VEGFR; conditions: virtually discovered
[2] = system: subretinal choroidal neovascularization (CNV); assay: Subretinal choroidal neovascularization model after intravitreal injection (virtual example); type: in vivo, mammal (preferably a pigmented rabbit or a primate); conditions: intravitreal 50 uL, 10-20 mg/mL
Procedure: The first solution was then added to a saturated fatty acid (e.g. octanoic acid) combined with lecithin or lecithin derivatives (e.g. phosphatidyl choline), a glycerol fatty acid ester (e.g. propylene glycol fatty acid esters such as polyoxyethyleneglycerol triricinoleate), a sorbitan fatty acid ester (e.g. Span® 20, Span® 80) or a olyoxylethylene sorbitan fatty acid ester (e.g. Tween® 20, Tween® 80), and optionally a co-surfactant (e.g. propylene glycol, glycerol, PEG 400, 1,2-propanediol), which were then solubilized as a microemulsion using commercial lipoemulsion techniques (e.g. Intralipid®, Abbolipid). […] 50 uL of either Lucentis® or Eylea® was administered into the remaining eye of the mammal. 2 weeks after administration a subretinal choroidal neovascularization (CNV) was caused in the eyes of the mammal using techniques explained in Qui G et al., A new model of experimental subretinal neovascularization in the rabbit, Exp Eye Res, 2006 July, 83(1), 141-152. 6 weeks after subretinal CNV eyes of the mammal were sacrificed for examination.

[3] = system: intraocular proliferative retinopathy; assay: Virtual discovery: intravitreal injection, intraocular proliferative retinopathy; type: in vivo
Source text: With the onset of proliferative retinopathy however conventional anti-VEGF therapy causes increased fibrosis. Van Geest R. J. et al., A shift in the balance of vascular endothelial growth factor and connective tissue growth factor by bevacizumab causes the angiofibrotic switch in proliferative diabetic retinopathy Br J Ophthalmol, 2012 April, 96(4), 587-90. […]. The suppression of intraocular proliferative retinopathy in turn suppresses fibrotic induction and the most severe manifestations of proliferative eye disease. This suppression also is virtually discovered to occur when the methyl of the preferred embodiments is replaced by any alkyl group. […]. As diabetic macular edema is amenable to anti-VEGF therapy, its use in patients with preproliferative severe peripheral ischemic disease, and or patients with early proliferative disease may enhance the onset of fibrovascular proliferative morbidity, whereas the present invention using MTKIs combining VEGF suppression with c-MET suppression may both reduce diabetic macular edema and suppress diabetic fibrovascular proliferation.

VEGFR2 [4] = molecular target: T1, VEGFR2 (Homo sapiens (Human), UniProt P35968); conditions: human umbilical vein endothelial cells; cited from earlier work
Target sequence in this assay (P35968 20-1356): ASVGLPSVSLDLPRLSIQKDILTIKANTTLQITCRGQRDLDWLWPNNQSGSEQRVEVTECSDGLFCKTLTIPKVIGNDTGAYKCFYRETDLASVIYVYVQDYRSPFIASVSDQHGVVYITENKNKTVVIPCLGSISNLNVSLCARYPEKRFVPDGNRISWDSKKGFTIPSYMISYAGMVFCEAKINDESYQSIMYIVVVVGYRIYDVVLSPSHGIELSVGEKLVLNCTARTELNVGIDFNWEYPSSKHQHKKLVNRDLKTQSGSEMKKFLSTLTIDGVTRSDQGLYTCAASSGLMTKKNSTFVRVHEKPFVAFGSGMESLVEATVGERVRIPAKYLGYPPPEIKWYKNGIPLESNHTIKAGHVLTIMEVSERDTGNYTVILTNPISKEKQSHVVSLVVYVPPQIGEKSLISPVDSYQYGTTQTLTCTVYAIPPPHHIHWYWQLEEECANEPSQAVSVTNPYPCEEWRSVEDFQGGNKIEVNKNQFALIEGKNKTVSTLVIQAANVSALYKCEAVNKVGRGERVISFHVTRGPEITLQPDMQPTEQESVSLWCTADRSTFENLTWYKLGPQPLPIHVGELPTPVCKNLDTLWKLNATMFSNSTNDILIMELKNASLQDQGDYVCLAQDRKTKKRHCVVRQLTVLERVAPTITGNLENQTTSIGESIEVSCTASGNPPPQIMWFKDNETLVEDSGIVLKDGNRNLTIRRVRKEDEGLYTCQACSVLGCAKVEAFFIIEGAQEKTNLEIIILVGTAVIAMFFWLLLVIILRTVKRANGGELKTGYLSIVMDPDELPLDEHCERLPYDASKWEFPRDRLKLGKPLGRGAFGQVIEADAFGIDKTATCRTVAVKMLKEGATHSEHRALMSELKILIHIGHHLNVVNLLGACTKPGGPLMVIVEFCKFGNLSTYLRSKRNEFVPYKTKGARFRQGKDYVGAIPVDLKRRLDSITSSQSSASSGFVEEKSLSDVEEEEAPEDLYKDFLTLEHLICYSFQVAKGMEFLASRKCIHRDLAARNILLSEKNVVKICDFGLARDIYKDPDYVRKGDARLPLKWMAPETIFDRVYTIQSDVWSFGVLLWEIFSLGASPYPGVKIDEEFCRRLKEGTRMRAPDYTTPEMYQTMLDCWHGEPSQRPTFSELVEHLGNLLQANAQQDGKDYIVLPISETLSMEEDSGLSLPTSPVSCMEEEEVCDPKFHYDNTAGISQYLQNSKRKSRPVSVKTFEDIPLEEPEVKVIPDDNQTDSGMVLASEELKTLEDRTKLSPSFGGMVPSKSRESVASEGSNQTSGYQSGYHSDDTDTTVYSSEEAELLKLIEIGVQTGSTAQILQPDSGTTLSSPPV

[5] = Residence in the vitreous humor; type: in vivo; conditions: estimated for its molecular weight
VEGFR2 [6] = molecular target: T1, VEGFR2; conditions: HUVEC, in vitro angiogenic assays; read-out: IC50 VEGFR2 inhibition; cited from earlier work
VEGFR [7] = conditions: read-out: IC50 (concentration required for efficacy); cited from earlier work

CCCCCCCCCCCCCCCC(=O)OC[n+]1ccc(Oc2ccc(NC(=O)C3(C(=O)Nc4ccc(F)cc4)CC3)cc2)c2cc(OC)c(OC)cc21 [Cabozantinib N-acyl methyl palmitate]
suppression of VEGFR (VEGFR [1]): suppress | suppression of macular edema [2]: long-lasting suppression of macular edema | suppression of fibrovascular proliferation ([2]; vs Lucentis or Eylea in the other eye, CNV 2 weeks after dosing, examined 6 weeks later): Greater suppression of fibrovascular proliferation | suppression of intraocular proliferative retinopathy [3]: suppress intraocular proliferative retinopathy

Cn1cnc(-c2cc3nccc(Oc4ccc(NC(=S)NC(=O)Cc5ccccc5)cc4F)c3s2)c1 [MGCD-265]
IC50 (VEGFR2 [4]): 3 nM

Cc1ccc(Nc2nccc(N(C)c3ccc4c(C)n(C)nc4c3)n2)cc1S(N)(=O)=O [pazopantinib, Pazopantinib]
intravitreal clearance [5]: within hours

bevacizumab [Avastin]
IC50 (VEGFR2 [6]): ~1.4 nM

foretinib N-acyl methyl palmitate
suppression of intraocular proliferative retinopathy [3]: suppress intraocular proliferative retinopathy

ranibizumab [Lucentis]
IC50 (VEGFR [7]): ~19 nM
